Experimental findings from ChEMBL document CHEMBL1201862, “PubChem BioAssay data set” (2004) are described below.

Activity calls are given as the source filed them.

A short description of assay [1]: antiviral protection against BTV-induced cell death – arbovirus, BSR cells, confirmation (AID 1250).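 Note: protection from viral cytopathic effect measured as cell viability by ATP luminescence.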 In kind it is functional.
Assay [2] deals with T1, Sphingosine 1-phosphate receptor 2 (Homo sapiens, UniProt O95136). The assay is described as follows: Dose Response Cell Based Assay for Agonists of the S1P2 Receptor of Purchased Analogues. [Related pubchem assays: 729, 843, 854, 736 ]. The assay is classed as functional.
T1 sequence (O95136 whole entry): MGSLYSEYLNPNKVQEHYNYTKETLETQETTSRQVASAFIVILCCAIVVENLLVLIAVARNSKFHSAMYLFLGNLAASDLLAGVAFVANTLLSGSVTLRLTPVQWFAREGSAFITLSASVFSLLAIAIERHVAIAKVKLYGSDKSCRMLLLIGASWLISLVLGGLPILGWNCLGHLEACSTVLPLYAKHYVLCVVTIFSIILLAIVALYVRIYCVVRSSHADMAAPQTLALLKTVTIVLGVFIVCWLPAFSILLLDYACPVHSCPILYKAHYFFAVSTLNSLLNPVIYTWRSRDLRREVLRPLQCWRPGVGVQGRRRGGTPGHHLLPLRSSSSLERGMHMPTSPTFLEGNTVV
Assay [3] in a line: Luminescence-based dose response cell-based high throughput screening assay for cytotoxic compounds using the IEC-6 intestinal epithelial cell line. [Related pubchem assays: 1858 (Summary AID.), 1825 (Counterscreen.), 1907 (Confirmation screen.)]. The assay is classed as functional.
The nature of assay [4]: Luminescence Cell-Based Dose Retest to Confirm Inhibitors of Cancer Stem Cells. [Related pubchem assays (depositor defined):AID2717, AID2721]. As to conditions: Homo sapiens. The assay is classed as functional.
The nature of assay [5]: HEK-293T viability loss after treatment – luminescence, T-cell screen hits, cytotoxicity control for TCR NF-kB inhibitor project, dose response (AID 489026).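 Note: cells exposed to compound about 14 hours before the viability readout.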 The assay is classed as functional, cell-based.
The target of the next assay is Large T antigen (Simian virus 40, UniProt P03070). The assay is classed as functional, Betapolyomavirus macacae.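 Note: Confirmatory-stage PubChem screen for compounds that inhibit SV40 T antigen.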
Chain of Large T antigen (P03070 whole entry): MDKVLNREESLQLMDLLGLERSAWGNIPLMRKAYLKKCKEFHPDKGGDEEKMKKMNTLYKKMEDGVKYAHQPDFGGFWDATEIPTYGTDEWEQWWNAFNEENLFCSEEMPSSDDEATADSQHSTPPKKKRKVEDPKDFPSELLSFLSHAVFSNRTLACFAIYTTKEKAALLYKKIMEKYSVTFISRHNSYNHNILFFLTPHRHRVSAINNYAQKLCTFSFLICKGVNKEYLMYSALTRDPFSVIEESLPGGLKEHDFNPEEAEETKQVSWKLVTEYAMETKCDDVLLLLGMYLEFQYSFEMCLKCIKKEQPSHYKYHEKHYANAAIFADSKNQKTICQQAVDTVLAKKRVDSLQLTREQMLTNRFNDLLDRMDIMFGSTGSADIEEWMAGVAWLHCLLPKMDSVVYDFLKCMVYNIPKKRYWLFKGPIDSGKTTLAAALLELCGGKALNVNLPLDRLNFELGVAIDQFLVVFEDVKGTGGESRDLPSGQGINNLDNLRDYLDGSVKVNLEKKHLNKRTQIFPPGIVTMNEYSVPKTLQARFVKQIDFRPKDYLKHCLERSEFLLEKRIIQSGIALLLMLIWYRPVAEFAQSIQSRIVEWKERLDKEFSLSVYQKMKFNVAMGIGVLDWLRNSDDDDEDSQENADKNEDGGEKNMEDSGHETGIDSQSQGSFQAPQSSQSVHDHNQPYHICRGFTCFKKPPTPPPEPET
The target in assay [6] is T2, Mannose-6-phosphate isomerase (Homo sapiens, UniProt P34949).
T2 sequence (P34949 whole entry): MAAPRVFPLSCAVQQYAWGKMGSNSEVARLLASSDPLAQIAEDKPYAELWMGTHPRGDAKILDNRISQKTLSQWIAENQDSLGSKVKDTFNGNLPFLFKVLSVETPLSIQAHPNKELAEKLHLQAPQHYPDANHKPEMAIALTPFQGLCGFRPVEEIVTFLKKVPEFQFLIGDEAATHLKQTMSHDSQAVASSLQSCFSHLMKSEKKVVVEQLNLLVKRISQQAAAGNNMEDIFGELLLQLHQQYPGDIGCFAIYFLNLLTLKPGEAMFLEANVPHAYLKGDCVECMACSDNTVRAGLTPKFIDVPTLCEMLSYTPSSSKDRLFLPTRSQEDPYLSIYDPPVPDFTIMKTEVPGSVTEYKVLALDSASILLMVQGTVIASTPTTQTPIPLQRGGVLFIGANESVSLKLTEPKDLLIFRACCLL
The assay is described as follows: MPI enzyme activity inhibition – biochemical, fluorescence intensity, coupled assay, primary screen (AID 1209).

Assay [7] is described as follows: viability loss in THP-1 monocytes – THP-1 cells, cytotoxicity control for Vif-APOBEC3G degradation inhibitor project, dose response (AID 1117359). In kind it is functional. Particulars: THP-1.
Assay [8] has as its system Vero. The assay is described as follows: mammalian cell viability reduction – secondary assay, cytotoxicity control for West Nile virus antiviral project, dose response (AID 1650). In kind it is functional. As to conditions: Chlorocebus sabaeus.
Assay [9] in a line: Trypanosoma cruzi growth suppression in host cells – NIH3T3 host cells, beta-gal luminescence, confirmation (AID 2044).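 Note: intracellular parasites grown in NIH/3T3 mouse fibroblasts as host cells; luminescent beta-galactosidase reporter signal from transgenic T. cruzi replicating inside host cells; inhibitors lower the luminescence signal.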 In kind it is functional, cell-based.
Assay [10] in a line: NIH3T3 cell viability loss – ATP luminescence, mouse fibroblasts, counter-screen, dose response (AID 2010).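 Note: cells exposed to compound for about 90 hours before reading.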 In kind it is functional, cell-based.
Assay [11] deals with Vero. The assay is described as follows: cells. In kind it is functional. Particulars: Chlorocebus sabaeus.
Assay [12] deals with Neuropeptide Y receptor type 1 (Homo sapiens, UniProt P25929). The assay is classed as functional.
Chain of Neuropeptide Y receptor type 1 (P25929 whole entry): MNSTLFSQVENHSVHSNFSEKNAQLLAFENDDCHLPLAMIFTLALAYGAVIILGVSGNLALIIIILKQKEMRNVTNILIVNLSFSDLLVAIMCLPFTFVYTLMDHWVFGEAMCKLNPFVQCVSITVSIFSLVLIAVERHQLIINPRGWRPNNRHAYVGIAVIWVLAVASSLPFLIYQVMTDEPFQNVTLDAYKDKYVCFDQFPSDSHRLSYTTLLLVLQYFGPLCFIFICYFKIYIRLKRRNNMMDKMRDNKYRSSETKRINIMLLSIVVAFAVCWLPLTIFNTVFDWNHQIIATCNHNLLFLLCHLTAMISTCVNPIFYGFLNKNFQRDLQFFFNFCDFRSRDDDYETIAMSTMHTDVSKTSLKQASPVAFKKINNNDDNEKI
The target in assay [13] is Neuropeptide Y receptor type 2 (Homo sapiens, UniProt P49146). The assay is classed as functional, cell-based.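 Note: HEK293 cells expressing the receptor and a CNG channel; stimulus was NPY near EC95 followed by isoproterenol to raise cAMP; antagonist potency measured as restoring cAMP signal that NPY suppresses.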
Chain of Neuropeptide Y receptor type 2 (P49146 whole entry): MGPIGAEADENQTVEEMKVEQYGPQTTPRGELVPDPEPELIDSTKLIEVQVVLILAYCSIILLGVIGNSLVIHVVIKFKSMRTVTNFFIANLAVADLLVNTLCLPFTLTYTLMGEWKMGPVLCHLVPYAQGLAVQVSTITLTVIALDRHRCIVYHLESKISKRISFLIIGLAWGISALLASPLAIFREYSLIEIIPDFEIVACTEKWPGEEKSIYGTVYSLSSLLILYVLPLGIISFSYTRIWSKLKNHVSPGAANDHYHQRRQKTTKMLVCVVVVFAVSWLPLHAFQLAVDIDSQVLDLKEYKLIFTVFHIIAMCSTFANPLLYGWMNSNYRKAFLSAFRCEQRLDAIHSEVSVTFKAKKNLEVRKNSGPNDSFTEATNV
Another assay concerns the target Cytochrome P450 2C19 (Homo sapiens, UniProt P33261). As to the kind of experiment: qHTS Assay for Inhibitors and Substrates of Cytochrome P450 2C19. [Related pubchem assays: 410 ]. The assay is classed as ADME. Particulars: read-out: Potency.
A further assay concerns the target Cytochrome P450 2C9 (Homo sapiens, UniProt P11712). Particulars: Potency.
For assay [14], the target named is 5-hydroxytryptamine receptor 1E (Homo sapiens, UniProt P28566). The assay is described as follows: Counterscreen assay for S1P3 antagonists: Dose response cell-based high throughput screening assay to identify antagonists of the 5-Hydroxytryptamine Receptor Subtype 1E (5HT1E). [Related pubchem assays: 1429, 485 ]. The assay is classed as functional.
Assay [15] deals with T3, Sphingosine 1-phosphate receptor 3 (Homo sapiens, UniProt Q99500). The assay is described as follows: Dose response cell-based high throughput screening assay for antagonists of the Sphingosine 1-Phosphate Receptor 3 (S1P3). [Related pubchem assays: 1429, 485 ]. The assay is classed as functional.
T3 sequence (Q99500 whole entry): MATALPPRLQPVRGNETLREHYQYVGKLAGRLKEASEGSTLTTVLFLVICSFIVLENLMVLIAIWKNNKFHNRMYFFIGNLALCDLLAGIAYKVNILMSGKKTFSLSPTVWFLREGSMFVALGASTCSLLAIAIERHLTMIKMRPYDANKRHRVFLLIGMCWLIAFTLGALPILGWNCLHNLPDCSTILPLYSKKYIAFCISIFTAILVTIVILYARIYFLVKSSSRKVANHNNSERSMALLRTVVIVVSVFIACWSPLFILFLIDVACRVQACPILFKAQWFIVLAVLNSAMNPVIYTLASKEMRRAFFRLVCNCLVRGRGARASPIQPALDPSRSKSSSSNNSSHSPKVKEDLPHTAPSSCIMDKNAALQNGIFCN
The target in assay [16] is Glucose-6-phosphate 1-dehydrogenase (Homo sapiens, UniProt P11413). The assay is described as follows: inhibition of Homo sapiens G6PD, dose series – biochemical, fluorescence, selectivity assay for P. falciparum G6PD inhibitor project, dose response (AID 504792). The assay is classed as functional.
Chain of Glucose-6-phosphate 1-dehydrogenase (P11413 whole entry): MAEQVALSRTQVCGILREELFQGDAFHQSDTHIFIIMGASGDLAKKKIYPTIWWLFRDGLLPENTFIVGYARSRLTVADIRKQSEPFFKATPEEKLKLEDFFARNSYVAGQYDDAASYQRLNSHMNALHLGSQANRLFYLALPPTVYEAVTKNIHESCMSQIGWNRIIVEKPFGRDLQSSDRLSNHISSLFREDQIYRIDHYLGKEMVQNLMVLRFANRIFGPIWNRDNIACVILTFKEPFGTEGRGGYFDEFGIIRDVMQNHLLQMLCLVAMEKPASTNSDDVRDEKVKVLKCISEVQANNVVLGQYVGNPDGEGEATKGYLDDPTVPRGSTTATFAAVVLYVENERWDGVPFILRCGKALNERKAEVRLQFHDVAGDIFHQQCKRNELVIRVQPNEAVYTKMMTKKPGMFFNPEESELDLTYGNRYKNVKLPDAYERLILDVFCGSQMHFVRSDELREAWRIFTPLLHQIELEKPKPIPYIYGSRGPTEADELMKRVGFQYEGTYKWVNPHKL
The target of assay [17] is T4, Probable nicotinate-nucleotide adenylyltransferase (Staphylococcus aureus (strain N315), UniProt P65502). In kind it is functional, Staphylococcus aureus subsp. aureus N315.
T4 sequence (P65502 whole entry): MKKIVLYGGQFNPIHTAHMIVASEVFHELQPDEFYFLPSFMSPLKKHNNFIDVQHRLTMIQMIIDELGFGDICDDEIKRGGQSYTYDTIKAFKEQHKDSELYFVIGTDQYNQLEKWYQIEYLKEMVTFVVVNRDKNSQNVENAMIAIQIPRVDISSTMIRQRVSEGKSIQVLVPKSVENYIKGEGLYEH
The target in assay [18] is T4, Probable nicotinate-nucleotide adenylyltransferase. In kind it is functional, Staphylococcus aureus subsp. aureus N315. Particulars: read-out: IC50_Mean.
The next assay addresses Paired box protein Pax-8 (Homo sapiens, UniProt Q06710). The assay is described as follows: PAX8 transcriptional activity inhibition in RMG-I – RMG-I cells, luciferase, cherry-pick, dose response (AID 687027).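 Note: luciferase reporter driven by Pax8 target thyroperoxidase promoter measured by SteadyGlo luminescence.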 The assay is classed as functional, cell-based.
Assay [19] in a line: A High Throughput Confirmatory Assay used to Identify Novel Compounds that Inhibit Mycobacterium Tuberculosis in the absence of Glycerol. In kind it is functional.
For assay [20], the target named is Epstein-Barr nuclear antigen 1 (Epstein-Barr virus (strain B95-8) (HHV-4) (Human herpesvirus 4), UniProt P03211). As to the kind of experiment: inhibition of EBV nuclear antigen 1 DNA binding – biochemical, fluorescence polarization, 1536-well, dose response (AID 2381).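 Note: fluorescence polarization of a Cy5 DNA probe bound by EBNA-1 protein.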 Also noted: species or system human gammaherpesvirus 4.
Assay [21] addresses Lytic switch protein BZLF1 (Epstein-Barr virus (strain B95-8) (HHV-4) (Human herpesvirus 4), UniProt P03206). The assay is described as follows: inhibition of BZLF1 ZTA DNA binding – biochemical, fluorescence polarization, Epstein-Barr virus, 1536-well, counter-screen for EBNA-1 inhibitor project, dose response (AID 2377).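 Note: fluorescence polarization of Cy5-labelled ZRE DNA probe bound by purified Zta.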 More on the design: species or system human gammaherpesvirus 4.

Assay [22] has as its target Peroxisome proliferator-activated receptor gamma/Nuclear receptor corepressor 2 (Homo sapiens, UniProt P37231+Q9Y618). The assay is described as follows: Counterscreen for NR2E3 inverse agonists: TR-FRET-based biochemical high throughput dose response assay to identify inverse agonists of the interaction between peroxisome proliferator-activated receptor gamma (PPARg) and nuclear receptor co-repressor 2 (NCOR2). In kind it is functional.

In assay [23] the target is Photoreceptor-specific nuclear receptor (Homo sapiens, UniProt Q9Y5X4). As to the kind of experiment: ligands suppressing NR2E3 nuclear receptor activity – biochemical, TR-FRET, dose response (AID 463256). In kind it is functional.
Assay [24] deals with T1, Sphingosine 1-phosphate receptor 2. The assay is described as follows: Dose Response Cell-Based Assay for Agonists of the Sphingosine 1-Phosphate Receptor 2 (S1P2): Purchased Analogues. [Related pubchem assays: 1192, 373, 439 ]. In kind it is functional.
Assay [25] deals with Sphingosine 1-phosphate receptor 1 (Homo sapiens, UniProt P21453). The assay is described as follows: Dose Response Cell-Based Assay for Agonists of the Sphingosine 1-Phosphate Receptor 1 (S1P1): Purchased Analogues. [Related pubchem assays: 1192, 373, 439 ]. The assay is classed as functional.
Assay [26] concerns the target T3, Sphingosine 1-phosphate receptor 3. As to the kind of experiment: Dose Response Cell-Based Assay for Agonists of the Sphingosine 1-Phosphate Receptor 3 (S1P3): Purchased Analogues. [Related pubchem assays: 373, 439 ]. In kind it is functional.
In assay [27] the target is T5, Bcl-2-related protein A1 (Mus musculus, UniProt Q07440).
T5 sequence (Q07440 whole entry): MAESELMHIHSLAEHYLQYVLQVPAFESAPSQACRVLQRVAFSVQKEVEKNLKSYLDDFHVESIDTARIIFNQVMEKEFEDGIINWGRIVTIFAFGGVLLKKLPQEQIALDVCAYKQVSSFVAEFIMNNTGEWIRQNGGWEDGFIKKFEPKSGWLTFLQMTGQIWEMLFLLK
The assay is described as follows: small-molecule antagonists of Bfl-1/BH3 interaction – biochemical, TR-FRET, mouse Bfl-1, confirmation (AID 621).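 Note: TR-FRET binding of GST-Bfl-1 to FITC-labelled Bid peptide via terbium antibody.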

Assay [28] has as its target T5, Bcl-2-related protein A1. As to the kind of experiment: Bfl-1 binding inhibitors, SAR follow-up, biochemical, fluorescence polarization (AID 1070).
A short description of assay [29]: A549 cell cytotoxicity, dose response, cytotoxicity control, plate reader, cherry-pick, antagonist series (AID 743412). The assay is classed as functional, cell-based.
A short description of assay [30]: toxicity toward HepG2 liver cells – cell-based, plate reader, cherry-pick, antagonist series, cytotoxicity control, dose response (AID 743416). The assay is classed as functional.
The nature of assay [31]: blockers of bursicon-stimulated LGR2 cAMP reporter – cell-based, HEK293, CRE-luciferase reporter, cherry pick, set 2, dose response (AID 743343).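 Note: transfected cells were stimulated with diluted bursicon conditioned medium after compound addition.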 In kind it is functional.
Assay [32] can be described thus: blockade of melanocortin 4 receptor signaling – cell-based, plate reader, cherry pick, counter-screen for LGR2 antagonist project, dose response (AID 743444).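 Note: transfected HEK 293 cells stimulated with alpha-MSH peptide; potency of inhibitors of the alpha-MSH evoked signal.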 In kind it is functional.
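Throughout, for IC50 Mean: confirmatory dose-response retesting of NadD inhibitor hits first found in an ultra-high-throughput screen.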

Chain of Cytochrome P450 2C9 (P11712 whole entry): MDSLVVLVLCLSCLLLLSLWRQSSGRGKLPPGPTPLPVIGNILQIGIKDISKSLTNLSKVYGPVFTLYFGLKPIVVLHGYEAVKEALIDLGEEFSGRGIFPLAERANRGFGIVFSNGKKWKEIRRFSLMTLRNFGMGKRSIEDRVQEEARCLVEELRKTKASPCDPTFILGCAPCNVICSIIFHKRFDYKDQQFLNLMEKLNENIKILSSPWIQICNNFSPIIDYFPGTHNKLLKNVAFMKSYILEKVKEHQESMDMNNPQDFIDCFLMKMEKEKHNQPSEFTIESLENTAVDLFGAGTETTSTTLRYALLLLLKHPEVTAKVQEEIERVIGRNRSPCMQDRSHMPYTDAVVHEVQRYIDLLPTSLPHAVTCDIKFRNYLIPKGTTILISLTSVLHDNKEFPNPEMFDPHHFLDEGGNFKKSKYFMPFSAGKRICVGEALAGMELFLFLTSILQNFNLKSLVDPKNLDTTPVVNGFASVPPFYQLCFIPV
Chain of Lytic switch protein BZLF1 (P03206 whole entry): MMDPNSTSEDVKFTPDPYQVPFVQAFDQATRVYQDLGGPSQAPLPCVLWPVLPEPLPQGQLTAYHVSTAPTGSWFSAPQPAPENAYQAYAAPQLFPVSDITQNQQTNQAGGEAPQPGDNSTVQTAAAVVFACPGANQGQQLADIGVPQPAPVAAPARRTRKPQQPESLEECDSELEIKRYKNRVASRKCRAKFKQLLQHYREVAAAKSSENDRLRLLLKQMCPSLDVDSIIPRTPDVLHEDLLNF
Chain of Cytochrome P450 2C19 (P33261 whole entry): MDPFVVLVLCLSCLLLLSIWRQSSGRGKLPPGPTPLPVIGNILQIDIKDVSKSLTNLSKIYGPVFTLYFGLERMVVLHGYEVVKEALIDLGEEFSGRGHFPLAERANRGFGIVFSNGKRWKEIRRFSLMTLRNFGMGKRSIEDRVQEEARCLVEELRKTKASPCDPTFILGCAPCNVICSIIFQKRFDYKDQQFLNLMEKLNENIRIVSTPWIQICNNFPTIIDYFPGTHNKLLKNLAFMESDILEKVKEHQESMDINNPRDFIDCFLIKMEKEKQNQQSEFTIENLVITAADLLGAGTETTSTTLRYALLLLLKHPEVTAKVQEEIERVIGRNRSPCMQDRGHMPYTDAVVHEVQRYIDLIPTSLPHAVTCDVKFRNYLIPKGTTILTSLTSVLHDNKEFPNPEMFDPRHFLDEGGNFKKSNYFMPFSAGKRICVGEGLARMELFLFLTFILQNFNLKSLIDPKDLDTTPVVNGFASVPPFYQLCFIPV
Chain of Paired box protein Pax-8 (Q06710 whole entry): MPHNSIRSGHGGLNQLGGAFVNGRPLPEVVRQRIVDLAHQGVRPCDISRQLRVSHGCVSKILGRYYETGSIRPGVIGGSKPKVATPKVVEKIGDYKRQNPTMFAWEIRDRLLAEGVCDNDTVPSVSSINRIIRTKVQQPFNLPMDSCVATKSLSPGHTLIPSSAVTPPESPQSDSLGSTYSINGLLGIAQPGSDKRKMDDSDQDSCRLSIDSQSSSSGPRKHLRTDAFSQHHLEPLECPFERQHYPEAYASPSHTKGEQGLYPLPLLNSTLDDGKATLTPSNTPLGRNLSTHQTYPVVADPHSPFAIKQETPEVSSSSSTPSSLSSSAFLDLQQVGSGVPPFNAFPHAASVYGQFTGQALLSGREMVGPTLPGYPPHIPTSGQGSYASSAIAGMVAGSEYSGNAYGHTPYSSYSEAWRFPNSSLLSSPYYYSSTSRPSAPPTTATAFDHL

Regarding `Cc1nc2c(C(=O)NCCc3ccccc3Cl)cnn2c(O)c1Cl`, in assay [1], the IC50 is 23.9 µM (active).

`Cc1cc(C(=O)CN(C)CC(=O)NC2CC2)c(C)n1Cc1ccccc1`: the EC50 in [2] was > 30 µM (not active).

Regarding `COC(=O)C(Cc1ccc(N(CCCl)CCCl)cc1)/N=C/c1ccccc1O` (stereo not drawn), the IC50 is 0.103 µM (active) in [3] and > 80 µM (inactive) in [5]. In addition, in assay [4], the AC50 is 0.899 µM (active).

For the compound `COc1cccc(-n2c(/C=C/c3ccc(O)c(O)c3)nc3ccccc3c2=O)c1`, the IC50 was > 100 µM (active) at Large T antigen and > 50 µM (not active) in [6]. Besides, the CC50 in [7] is 23.1 µM (active).

Turning to `C=C(C)[C@@]12OC3(c4ccccc4)O[C@@H]1C1[C@@H]4O[C@]4(CO)[C@@H](O)[C@]4(O)C(=O)C(C)=C[C@H]4[C@@]1(O3)[C@H](C)[C@H]2OC(=O)/C=C/C=C/c1ccccc1` (stereo partly drawn), the values for the CC50 in the assay on Vero [8] and in the assay on Vero [11] were > 100 µM (active) and > 25 µM (active), respectively. The EC50 in assay [9] is < 0.1 µM (active); in [10], > 60 µM (not active); in “cells” it was < 0.004 µM (active). The IC50 in assay [5] is > 80 µM (inactive).

Regarding `CCCCOc1ccc(C2=NNC(=O)CC2)cc1`, the IC50 in [12] was 13.6 µM (not active); in assay [13], 4.54 µM (active).

Regarding `COc1cc2ccc(=O)oc2c(O)c1O` [FRAXETIN], the AC50 is 39.8 µM (inconclusive) at Cytochrome P450 2C19 and 25.1 µM (inconclusive) at Cytochrome P450 2C9.

As to `Cc1cccc(C2(c3cccc(C)c3)CC2C(=O)Nc2ccc([N+](=O)[O-])cc2O)c1` (stereo not drawn), the IC50 in assay [14] was 5.46 µM (active); in assay [15] it was > 50 µM (not active); in assay [16], > 80 µM (inactive); in assay [17], 17 µM (active); in assay [18], 45.4 µM (active). Besides, on Paired box protein Pax-8, the AC50 was 7.83 µM (active).

In the case of `COc1cc2cc(C(c3nnnn3C(C)(C)C)N3CCc4ccccc43)c(O)nc2cc1OC` (stereo not drawn), in [19], the IC50 is > 100 µM (active).

In the case of `COc1ccc(NC(=O)COc2ccc3c(C)cc(=O)oc3c2)cc1S(=O)(=O)N1CCCCC1`, the results for the IC50 in assay [20] and in assay [21] were 5.29 µM (active) and > 111 µM (not active), respectively.

With `CC(C)(C)NC(=O)CN(Cc1ccco1)C(=O)CCC(=O)Nc1nccs1`, the IC50 in assay [22] is 32.7 µM (not active); in [23] it was > 39.8 µM (not active).

As to `COc1ccc(-c2n[nH]c(SCC(=O)N(C3CCCCC3)C3CCCCC3)n2)cc1`, the figures for the EC50 in [24], in assay [25] and in assay [26] were > 10 µM (not active), > 50 µM (not active) and > 50 µM (not active), respectively.

As for `Fc1ccc(-n2nnc(-c3cnc4ccccc4c3)n2)cc1`, the IC50 against Bcl-2-related protein A1 [27] and at Bcl-2-related protein A1 [28] was > 100 µM (not active) each time. In addition, the AC50 is 39.5 µM (active) in assay [29], > 52 µM (inactive) in [30], 1.23 µM (active) in [31] and 2.15 µM (active) in assay [32].
